{"source": "paper PMC5691139", "about": "“Structural and functional studies of SAV0551 from Staphylococcus aureus as a chaperone and glyoxalase III” (Bioscience Reports, 2017)", "molecules": {"B1": {"name": "SAV0551 from Staphylococcus aureus Mu50 (natural protein, UniProt P64312 1-292, looked up)", "chain": "MSQDVNELSKQPTPDKAEDNAFFPSPYSLSQYTAPKTDFDGVEHKGAYKDGKWKVLMIAAEERYVLLENGKMFSTGNHPVEMLLPLHHLMEAGFDVDVATLSGYPVKLELWAMPTEDEAVISTYNKLKEKLKQPKKLADVIKNELGPDSDYLSVFIPGGHAAVVGISESEDVQQTLDWALDNDRFIVTLCHGPAALLSAGLNREKSPLEGYSVCVFPDSLDEGANIEIGYLPGRLKWLVADLLTKQGLKVVNDDMTGRTLKDRKLLTGDSPLASNELGKLAVNEMLNAIQNK", "notes": "SAV0551, Hsp-type DJ-1/ThiJ/PfpI superfamily protein (Hsp31 homologue, glyoxalase III) of Staphylococcus aureus Mu50 (ATCC 700699); predicted ORF amplified from genomic DNA into pET-21a(+) NdeI/XhoI; monomer ~32 kDa; also called wild-type SAV0551; native SAV0551; source: E. coli BL21(DE3), purified (Ni-NTA, Superdex 75)"}}, "key": {"SAV0551 [1]": {"target": "T1, SAV0551 (Staphylococcus aureus, UniProt P64312)", "T1 construct": "gene hchA; monomer ~32 kDa, dimer ~64 kDa", "T1 sequence (P64312 1-292)": "B1 chain", "experiment": "1D 1H NMR", "assay_type": "biochemical", "conditions": "60 mM methylglyoxal, 50 µM enzyme, 20 mM HEPES pH 7.5, 50 mM KCl, 2 mM DTT, 37°C"}, "SAV0551 [2]": {"target": "T1, SAV0551", "experiment": "X-ray crystal structure of the complex, […] Å", "assay_type": "binding", "conditions": "co-crystal with 50 mM glyoxylate, 30% PEG3350, 100 mM BisTris pH 6.5, 293 K; active site at Cys190; additional glyoxylate in aspartate-rich cleft between non-dimer chains"}, "SAV0551 [3]": {"target": "T1, SAV0551", "experiment": "1D 1H NMR and DNPH absorbance ([…] nm) of remaining methylglyoxal", "assay_type": "biochemical", "conditions": "no cofactor; 20 mM HEPES pH 7.5, 50 mM KCl, 2 mM DTT, 37°C; 60 mM (NMR) or 6 mM substrate; 50 or 10 µM enzyme"}, "[4]": {"target": "the molecule itself", "experiment": "SEC; size-exclusion chromatography in solution; conditions not told for this result (the purification used Superdex 75 10/300 GL in 50 mM Tris pH 7.5, 0.15 M NaCl)"}}, "data": [{"molecule": "C[C@@H](O)C(=O)O", "note": "[D-lactate]", "values": [{"measurement": "1D 1H NMR", "setting": "SAV0551 [1]", "value": "new peaks that correspond to the D-lactate produced by SAV0551"}]}, {"molecule": "O=CC(=O)O", "note": "[glyoxylate]", "values": [{"measurement": "X-ray crystal structure of the complex, 3.01 Å", "setting": "SAV0551 [2]", "value": "5XR3 for SAV0551 with glyoxylate"}]}, {"molecule": "CC(=O)C=O", "note": "[methylglyoxal]", "values": [{"measurement": "1D 1H NMR and DNPH absorbance (550 nm) of remaining methylglyoxal", "setting": "SAV0551 [3]", "value": "methylglyoxal can be used as a substrate for SAV0551 to produce D-lactate"}]}, {"molecule": "B1", "values": [{"measurement": "stoichiometry N", "setting": "[4]", "value": 2}]}]}
